In brackets after ≈: the same amount, converted by molar mass. Read-outs that look alike come from different tables or passages of the source.
How the values were obtained:
Staphylococcus aureus = assay: Antibacterial screening against S. aureus; format: cell-based; conditions: read-out: S. aureus IC50
Escherichia coli = assay: Antibacterial screening against E. coli; format: cell-based; conditions: read-out: E. coli IC50
[1] = tested on: M. tuberculosis H37Ra-lux; assay: microbe, parasite or virus in culture; format: cell-based, Mycobacterium tuberculosis; conditions: for IC50: read-out: M. tuberculosis H37Ra-lux IC50; for IC90: read-out: M. tuberculosis H37Ra-lux IC90
MTB = conditions: cited from earlier work
MTB H37Rv = conditions: cited from earlier work
[2] = Mycobacterium tuberculosis, H37RA, 168 h

SMILES | IC50 (Staphylococcus aureus; Staphylococcus aureus) [µM] | IC50 (Escherichia coli) [µM] | IC50 [1, 2] [µM] | other results
O=C(Nc1ccc(N2CCCN(C(=O)c3cnccn3)CC2)nc1)c1ccc(Cl)cc1Cl [7j, 2,4-Dichloro-N-(6-(4-(pyrazine-2-carbonyl)-1,4-diazepan-1-yl)pyridin-3-yl)benzamide] | > 64 | > 64 | > 64 | –
O=C(Nc1ccc(N2CCN(C(=O)c3cnccn3)CC2)nc1)c1ccc(Cl)cc1 [6d, 4-Chloro-N-(6-(4-(pyrazine-2-carbonyl)piperazin-1-yl)pyridin-3-yl)benzamide] | > 64 | > 64 | > 64 | –
Cc1ccc(NC(=O)c2cnc(C(C)(C)C)c(Cl)n2)cc1I [D, 5-(tert-Butyl)-6-chloro-N-(3-iodo-4-methylphenyl)pyrazine-2-carboxamide] | – | – | – | IC50, anti-mycobacterial activity (MTB): 0.728 µg/mL (≈ 1.69 µM); IC90, anti-mycobacterial activity (MTB): 0.819 µg/mL (≈ 1.91 µM)
O=C(Nc1ccc(N2CCCN(C(=O)c3cnccn3)CC2)nc1)c1cnccn1 [7k, N-(6-(4-(Pyrazine-2-carbonyl)-1,4-diazepan-1-yl)pyridin-3-yl)pyrazine-2-carboxamide] | > 64 | > 64 | – | –
O=C(Nc1ccc(N2CCN(C(=O)c3cnccn3)CC2)nc1)c1ccc(Br)cc1 [6e, 4-Bromo-N-(6-(4-(pyrazine-2-carbonyl)piperazin-1-yl)pyridin-3-yl)benzamide] | > 64 | > 64 | 2.18 | –
O=C(NCCN1CCOCC1)c1cnccn1 [F, N-(2-morpholinoethyl)pyrazine-2-carboxamide] | – | – | – | MIC against MTB H37Rv (MTB H37Rv): 8.0 µg/mL (≈ 33.9 µM)
O=C(Nc1ccc(N2CCCN(C(=O)c3cnccn3)CC2)nc1)c1cccc([N+](=O)[O-])c1 [7f, 3-Nitro-N-(6-(4-(pyrazine-2-carbonyl)-1,4-diazepan-1-yl)pyridin-3-yl)benzamide] | > 64 | > 64 | > 64 | –
O=C(Nc1ccc(N2CCN(C(=O)c3cnccn3)CC2)nc1)c1ccccc1I [6i, 2-Iodo-N-(6-(4-(pyrazine-2-carbonyl)piperazin-1-yl)pyridin-3-yl)benzamide] | > 64 | > 64 | > 64 | –
CC(C)(C)c1ccc(C(=O)Nc2ccc(N3CCN(C(=O)c4cnccn4)CC3)nc2)cc1 [6c, 4-(tert-Butyl)-N-(6-(4-(pyrazine-2-carbonyl)piperazin-1-yl)pyridin-3-yl)benzamide] | > 64 | > 64 | > 64 | –
Cc1cccc(NC(=O)c2cnccn2)c1Br [B, N-(2-bromo-3-methylphenyl)pyrazine-2-carboxamide] | – | – | – | MIC, anti-mycobacterial activity (MTB): ≤ 0.002 µg/mL
CCOc1ccc(C(=O)Nc2ccc(N3CCCN(C(=O)c4cnccn4)CC3)nc2)cc1 [7b, 4-Ethoxy-N-(6-(4-(pyrazine-2-carbonyl)-1,4-diazepan-1-yl)pyridin-3-yl)benzamide] | > 64 | > 64 | > 64 | –
Cc1ccccc1C(=O)Nc1ccc(N2CCN(C(=O)c3cnccn3)CC2)nc1 [6h, 2-Methyl-N-(6-(4-(pyrazine-2-carbonyl)piperazin-1-yl)pyridin-3-yl)benzamide] | > 64 | > 64 | 1.82 | IC90 [1]: 3.85 µM
O=C(Nc1ccc(N2CCN(C(=O)c3cnccn3)CC2)nc1)c1cnccn1 [6n, N-(6-(4-(Pyrazine-2-carbonyl)piperazin-1-yl)pyridin-3-yl)pyrazine-2-carboxamide] | > 64 | > 64 | > 64 | Anti-TB activity against M. tuberculosis H37Ra in words [1]: loss of activity
O=C(Nc1ccc(N2CCN(C(=O)c3cnccn3)CC2)nc1)c1cccc([N+](=O)[O-])c1 [6f, 3-Nitro-N-(6-(4-(pyrazine-2-carbonyl)piperazin-1-yl)pyridin-3-yl)benzamide] | > 64 | > 64 | > 64 | Anti-TB activity against M. tuberculosis H37Ra in words [1]: inactive
NC(=O)c1cnccn1 [PZA, Pyrazinamide] | – | – | – | IC90, anti-mycobacterial activity (MTB): > 20 µg/mL; MIC, anti-mycobacterial activity (MTB): 0.008 µg/mL (≈ 0.065 µM)
O=C(Nc1ccc(N2CCN(C(=O)c3cnccn3)CC2)nc1)c1ccc(Br)cc1Cl [6k, 4-Bromo-2-chloro-N-(6-(4-(pyrazine-2-carbonyl)piperazin-1-yl)pyridin-3-yl)benzamide] | > 64 | > 64 | 1.35 | –
Cc1ccc(NC(=O)c2cnccn2)cc1I [C, N-(3-iodo-4-methylphenyl)pyrazine-2-carboxamide] | – | – | – | MIC, anti-mycobacterial activity (MTB): ≤ 0.002 µg/mL
CCn1cc(C(=O)O)c(=O)c2cc(F)c(N3CCNCC3)cc21 [Norfloxacin, reference compound] | – | 0.38 | – | –
COc1ccc(C(=O)Nc2ccc(N3CCN(C(=O)c4cnccn4)CC3)nc2)cc1 [6b, 4-Methoxy-N-(6-(4-(pyrazine-2-carbonyl)piperazin-1-yl)pyridin-3-yl)benzamide] | > 64 | > 64 | > 64 | –

SMILES | IC50 (Staphylococcus aureus; Staphylococcus aureus) [µM] | IC50 (Escherichia coli) [µM] | IC50 [1, 2] [µM] | other results
O=C(Nc1ccc(N2CCCN(C(=O)c3cnccn3)CC2)nc1)c1ccccc1 [7a, N-(6-(4-(Pyrazine-2-carbonyl)-1,4-diazepan-1-yl)pyridin-3-yl)benzamide] | > 64 | > 64 | > 64 | –
O=C(Nc1ccc(N2CCCN(C(=O)c3cnccn3)CC2)nc1)c1c(F)cccc1Cl [7m, 2-Chloro-6-fluoro-N-(6-(4-(pyrazine-2-carbonyl)-1,4-diazepan-1-yl)pyridin-3-yl)benzamide] | > 64 | > 64 | > 64 | –
O=C(Nc1ccc(N2CCN(C(=O)c3cnccn3)CC2)nc1)c1ccncc1 [6m, N-(6-(4-(Pyrazine-2-carbonyl)piperazin-1-yl)pyridin-3-yl)isonicotinamide] | > 64 | > 64 | > 64 | Anti-TB activity against M. tuberculosis H37Ra in words [1]: loss of activity
O=C(Nc1ccc(N2CCN(C(=O)c3cnccn3)CC2)nc1)c1cccc(Br)c1 [6g, 3-Bromo-N-(6-(4-(pyrazine-2-carbonyl)piperazin-1-yl)pyridin-3-yl)benzamide] | > 64 | > 64 | > 64 | Anti-TB activity against M. tuberculosis H37Ra in words [1]: inactive
O=C(Nc1ccc(N2CCN(C(=O)c3cnccn3)CC2)nc1)c1c(Cl)cccc1Br [6j, 2-Bromo-6-chloro-N-(6-(4-(pyrazine-2-carbonyl)piperazin-1-yl)pyridin-3-yl)benzamide] | > 64 | > 64 | 1.82 | IC50 [1]: 2.14 µM; IC90 [1]: 3.94 µM
O=C(Nc1ccc(N2CCCN(C(=O)c3cnccn3)CC2)nc1)c1ccncc1 [7l, N-(6-(4-(Pyrazine-2-carbonyl)-1,4-diazepan-1-yl)pyridin-3-yl)isonicotinamide] | > 64 | > 64 | > 64 | –
O=C(Nc1ccc(N2CCCN(C(=O)c3cnccn3)CC2)nc1)c1ccc(Cl)cc1 [7d, 4-Chloro-N-(6-(4-(pyrazine-2-carbonyl)-1,4-diazepan-1-yl)pyridin-3-yl)benzamide] | > 64 | > 64 | > 64 | –
CC(C)(C)c1ccc(C(=O)Nc2ccc(N3CCCN(C(=O)c4cnccn4)CC3)nc2)cc1 [7c, 4-(tert-Butyl)-N-(6-(4-(pyrazine-2-carbonyl)-1,4-diazepan-1-yl)pyridin-3-yl)benzamide] | > 64 | > 64 | > 64 | –
O=C(Nc1ccc(C(F)(F)F)cc1)c1cnccn1 [A, N-(4-(trifluoromethyl)phenyl)pyrazine-2-carboxamide] | – | – | – | MIC, anti-mycobacterial activity (MTB): ≤ 0.002 µg/mL
O=C(Nc1ccc(N2CCCN(C(=O)c3cnccn3)CC2)nc1)c1cccc(Br)c1 [7g, 3-Bromo-N-(6-(4-(pyrazine-2-carbonyl)-1,4-diazepan-1-yl)pyridin-3-yl)benzamide] | > 64 | > 64 | > 64 | –
O=C(NCCN1CCNCC1)c1cnccn1 [E, N-(2-(piperazin-1-yl)ethyl)pyrazine-2-carboxamide] | – | – | – | MIC against MTB H37Rv (MTB H37Rv): 12.2 µg/mL (≈ 51.9 µM)
O=C(Nc1ccc(N2CCN(C(=O)c3cnccn3)CC2)nc1)c1ccc(Cl)cc1Cl [6l, 2,4-Dichloro-N-(6-(4-(pyrazine-2-carbonyl)piperazin-1-yl)pyridin-3-yl)benzamide] | > 64 | > 64 | > 64 | Anti-TB activity against M. tuberculosis H37Ra in words [1]: inactive
O=C(Nc1ccc(N2CCCN(C(=O)c3cnccn3)CC2)nc1)c1ccc(Br)cc1 [7e, 4-Bromo-N-(6-(4-(pyrazine-2-carbonyl)-1,4-diazepan-1-yl)pyridin-3-yl)benzamide] | > 64 | > 64 | 2.12 | –
O=C(Nc1ccc(N2CCCN(C(=O)c3cnccn3)CC2)nc1)c1ccc(Br)cc1Cl [7i, 4-Bromo-2-chloro-N-(6-(4-(pyrazine-2-carbonyl)-1,4-diazepan-1-yl)pyridin-3-yl)benzamide] | > 64 | > 64 | > 64 | –
O=C(Nc1ccc(N2CCCN(C(=O)c3cnccn3)CC2)nc1)c1ccccc1I [7h, 2-Iodo-N-(6-(4-(pyrazine-2-carbonyl)-1,4-diazepan-1-yl)pyridin-3-yl)benzamide] | > 64 | > 64 | > 64 | –
C[C@H]1c2cccc(O)c2C(O)=C2C(=O)[C@]3(O)C(O)=C(C(N)=O)C(=O)[C@@H](N(C)C)[C@@H]3[C@@H](O)[C@@H]21 [Doxycyclin, reference compound] | – | – | – | IC50 (Staphylococcus aureus): 0.09 µM
NNC(=O)c1ccncc1 [Isoniazid, reference compound] | – | – | 0.013 | –
O=C(Nc1ccc(N2CCN(C(=O)c3cnccn3)CC2)nc1)c1ccccc1 [6a, N-(6-(4-(Pyrazine-2-carbonyl)piperazin-1-yl)pyridin-3-yl)benzamide] | > 64 | > 64 | 1.46 | –

— paper PMC9050811 (RSC Advances, 2020)
